Measurements: ChEMBL document CHEMBL1146152, “5-(1H-Benzimidazol-1-yl)-3-alkoxy-2-thiophenecarbonitriles as potent, selective, inhibitors of IKK-epsilon kinase” (Bioorg Med Chem Lett, 2006)
Values after ≈ are worked out from the molar mass of the structure shown. Blank lines part the entries; values can stand above or below the molecule they belong to.

Legend:
[1] = target: T1, Inhibitor of nuclear factor kappa-B kinase subunit epsilon (Homo sapiens, UniProt Q14164); test: Inhibition of human recombinant IKKepsilon by TR-FRET assay
T1 sequence (Q14164 whole entry): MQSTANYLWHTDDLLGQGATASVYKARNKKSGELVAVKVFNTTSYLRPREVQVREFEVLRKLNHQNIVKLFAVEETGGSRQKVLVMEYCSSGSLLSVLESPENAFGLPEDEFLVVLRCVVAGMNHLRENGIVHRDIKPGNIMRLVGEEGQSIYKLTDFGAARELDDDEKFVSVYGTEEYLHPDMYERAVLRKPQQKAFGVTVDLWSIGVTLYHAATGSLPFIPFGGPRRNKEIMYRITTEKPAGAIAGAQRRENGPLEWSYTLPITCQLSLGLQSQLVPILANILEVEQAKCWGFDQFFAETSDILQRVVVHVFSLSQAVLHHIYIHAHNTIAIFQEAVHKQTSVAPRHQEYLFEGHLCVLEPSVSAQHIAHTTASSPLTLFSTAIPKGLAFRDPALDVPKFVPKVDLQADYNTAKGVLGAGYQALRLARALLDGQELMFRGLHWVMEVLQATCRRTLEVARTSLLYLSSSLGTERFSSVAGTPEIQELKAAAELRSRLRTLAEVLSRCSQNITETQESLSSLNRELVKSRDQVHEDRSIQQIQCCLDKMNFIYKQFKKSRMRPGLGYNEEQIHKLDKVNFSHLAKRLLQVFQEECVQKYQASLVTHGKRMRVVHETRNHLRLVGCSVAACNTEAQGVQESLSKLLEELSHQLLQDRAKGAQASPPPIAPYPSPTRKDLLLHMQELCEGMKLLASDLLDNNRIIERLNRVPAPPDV

[2] = target: Serine/threonine-protein kinase PLK1 (Homo sapiens, UniProt P53350); test: Inhibition of PLK1
[3] = target: Epidermal growth factor receptor (Homo sapiens, UniProt P00533); test: Inhibition of EGFR
[4] = target: Mitogen-activated protein kinase 14 (Homo sapiens, UniProt Q16539); test: Inhibition of p38alpha
[5] = target: Receptor tyrosine-protein kinase erbB-2 (Homo sapiens, UniProt P04626); test: Inhibition of ErB2
[6] = target: Cytochrome P450 3A4 (Homo sapiens, UniProt P08684); test: Inhibition of CYP3A4; assay type: ADME
[7] = Aqueous solubility of the compound; assay type: physicochemical; conditions: buffer
[8] = target: Cytochrome P450 2D6 (Homo sapiens, UniProt P10635); test: Inhibition of CYP2D6; assay type: ADME
[9] = target: Glycogen synthase kinase-3 (Homo sapiens, UniProt P49840+P49841); test: Inhibition of GSK3; assay type: protein assay
[10] = target: Mitogen-activated protein kinase 11 (Homo sapiens, UniProt Q15759); test: Inhibition of p38beta
[11] = target: T2, Cytochrome P450 1A2 (Homo sapiens, UniProt P05177); test: Inhibition of CYP1A2; assay type: ADME
T2 sequence (P05177 whole entry): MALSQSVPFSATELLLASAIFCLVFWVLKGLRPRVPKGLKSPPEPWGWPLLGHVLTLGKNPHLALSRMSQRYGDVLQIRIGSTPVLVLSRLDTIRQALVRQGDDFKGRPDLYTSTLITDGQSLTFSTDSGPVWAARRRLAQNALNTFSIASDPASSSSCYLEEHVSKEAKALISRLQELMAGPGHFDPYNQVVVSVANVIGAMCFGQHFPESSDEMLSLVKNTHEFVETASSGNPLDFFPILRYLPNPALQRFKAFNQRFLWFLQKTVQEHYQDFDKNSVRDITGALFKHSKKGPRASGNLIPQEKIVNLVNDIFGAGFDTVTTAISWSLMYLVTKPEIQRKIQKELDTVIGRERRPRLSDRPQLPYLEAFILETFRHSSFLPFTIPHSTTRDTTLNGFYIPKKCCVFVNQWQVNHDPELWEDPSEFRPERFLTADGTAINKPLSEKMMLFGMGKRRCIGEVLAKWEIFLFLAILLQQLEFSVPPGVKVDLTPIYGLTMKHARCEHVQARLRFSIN

[12] = target: Cytochrome P450 2C9 (Homo sapiens, UniProt P11712); test: Inhibition of CYP2C9; assay type: ADME
[13] = target: Mitogen-activated protein kinase 10 (Homo sapiens, UniProt P53779); test: Inhibition of JNK3
[14] = target: T3, TGF-beta receptor type-1 (Homo sapiens, UniProt P36897); test: Inhibition of Alk5
T3 sequence (P36897 whole entry): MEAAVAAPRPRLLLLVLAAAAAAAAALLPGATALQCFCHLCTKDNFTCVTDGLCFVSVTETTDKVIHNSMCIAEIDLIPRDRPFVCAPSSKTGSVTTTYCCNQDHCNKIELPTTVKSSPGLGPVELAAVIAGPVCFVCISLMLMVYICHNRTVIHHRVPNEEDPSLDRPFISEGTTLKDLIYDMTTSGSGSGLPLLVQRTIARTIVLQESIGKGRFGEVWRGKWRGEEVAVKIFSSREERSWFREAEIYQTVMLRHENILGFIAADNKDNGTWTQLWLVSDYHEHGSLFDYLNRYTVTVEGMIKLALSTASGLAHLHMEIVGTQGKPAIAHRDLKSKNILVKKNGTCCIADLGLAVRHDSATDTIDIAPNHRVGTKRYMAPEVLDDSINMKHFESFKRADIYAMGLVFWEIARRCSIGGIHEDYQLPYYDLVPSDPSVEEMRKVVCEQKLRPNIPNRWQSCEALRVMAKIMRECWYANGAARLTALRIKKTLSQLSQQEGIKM

Sequence of Serine/threonine-protein kinase PLK1 (P53350 whole entry): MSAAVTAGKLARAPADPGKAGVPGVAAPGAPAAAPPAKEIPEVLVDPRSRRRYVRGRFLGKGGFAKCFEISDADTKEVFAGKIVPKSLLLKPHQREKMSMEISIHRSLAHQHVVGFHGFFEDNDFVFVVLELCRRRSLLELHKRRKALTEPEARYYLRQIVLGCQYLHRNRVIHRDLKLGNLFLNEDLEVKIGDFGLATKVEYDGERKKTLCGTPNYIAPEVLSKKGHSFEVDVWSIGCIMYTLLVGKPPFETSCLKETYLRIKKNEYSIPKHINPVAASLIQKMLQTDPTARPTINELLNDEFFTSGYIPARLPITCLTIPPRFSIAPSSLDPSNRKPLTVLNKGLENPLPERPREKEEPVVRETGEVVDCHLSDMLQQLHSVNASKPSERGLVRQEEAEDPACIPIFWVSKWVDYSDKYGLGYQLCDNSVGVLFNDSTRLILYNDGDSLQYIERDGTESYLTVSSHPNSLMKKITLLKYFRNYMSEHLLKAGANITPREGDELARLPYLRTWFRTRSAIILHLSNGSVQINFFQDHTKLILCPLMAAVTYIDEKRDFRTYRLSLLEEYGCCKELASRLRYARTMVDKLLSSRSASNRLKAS
Sequence of Mitogen-activated protein kinase 11 (Q15759 whole entry): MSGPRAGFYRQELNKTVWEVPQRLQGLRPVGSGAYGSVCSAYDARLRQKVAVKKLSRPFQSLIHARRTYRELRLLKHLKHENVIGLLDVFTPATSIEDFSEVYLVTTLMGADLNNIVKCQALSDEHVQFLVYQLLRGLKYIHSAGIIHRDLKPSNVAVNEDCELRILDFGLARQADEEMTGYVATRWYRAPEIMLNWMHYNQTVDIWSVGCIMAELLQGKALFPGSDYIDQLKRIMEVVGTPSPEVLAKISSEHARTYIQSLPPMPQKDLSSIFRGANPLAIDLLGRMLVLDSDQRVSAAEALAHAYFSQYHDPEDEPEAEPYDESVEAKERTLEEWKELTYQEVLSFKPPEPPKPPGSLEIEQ
Sequence of Cytochrome P450 2D6 (P10635 whole entry): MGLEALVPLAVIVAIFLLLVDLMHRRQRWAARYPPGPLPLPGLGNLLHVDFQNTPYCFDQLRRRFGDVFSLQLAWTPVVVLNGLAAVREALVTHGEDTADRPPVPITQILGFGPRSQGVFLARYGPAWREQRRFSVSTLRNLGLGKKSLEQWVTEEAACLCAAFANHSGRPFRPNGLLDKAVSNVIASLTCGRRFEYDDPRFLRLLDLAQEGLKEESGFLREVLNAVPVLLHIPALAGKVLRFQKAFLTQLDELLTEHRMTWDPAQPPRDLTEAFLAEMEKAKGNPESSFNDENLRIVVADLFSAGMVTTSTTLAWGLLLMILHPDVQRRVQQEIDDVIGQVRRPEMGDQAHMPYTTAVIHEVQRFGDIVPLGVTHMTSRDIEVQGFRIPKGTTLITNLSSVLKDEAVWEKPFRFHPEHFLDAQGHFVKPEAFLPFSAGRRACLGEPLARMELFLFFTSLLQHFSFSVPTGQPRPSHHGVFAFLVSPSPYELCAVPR
Sequence of Receptor tyrosine-protein kinase erbB-2 (P04626 whole entry): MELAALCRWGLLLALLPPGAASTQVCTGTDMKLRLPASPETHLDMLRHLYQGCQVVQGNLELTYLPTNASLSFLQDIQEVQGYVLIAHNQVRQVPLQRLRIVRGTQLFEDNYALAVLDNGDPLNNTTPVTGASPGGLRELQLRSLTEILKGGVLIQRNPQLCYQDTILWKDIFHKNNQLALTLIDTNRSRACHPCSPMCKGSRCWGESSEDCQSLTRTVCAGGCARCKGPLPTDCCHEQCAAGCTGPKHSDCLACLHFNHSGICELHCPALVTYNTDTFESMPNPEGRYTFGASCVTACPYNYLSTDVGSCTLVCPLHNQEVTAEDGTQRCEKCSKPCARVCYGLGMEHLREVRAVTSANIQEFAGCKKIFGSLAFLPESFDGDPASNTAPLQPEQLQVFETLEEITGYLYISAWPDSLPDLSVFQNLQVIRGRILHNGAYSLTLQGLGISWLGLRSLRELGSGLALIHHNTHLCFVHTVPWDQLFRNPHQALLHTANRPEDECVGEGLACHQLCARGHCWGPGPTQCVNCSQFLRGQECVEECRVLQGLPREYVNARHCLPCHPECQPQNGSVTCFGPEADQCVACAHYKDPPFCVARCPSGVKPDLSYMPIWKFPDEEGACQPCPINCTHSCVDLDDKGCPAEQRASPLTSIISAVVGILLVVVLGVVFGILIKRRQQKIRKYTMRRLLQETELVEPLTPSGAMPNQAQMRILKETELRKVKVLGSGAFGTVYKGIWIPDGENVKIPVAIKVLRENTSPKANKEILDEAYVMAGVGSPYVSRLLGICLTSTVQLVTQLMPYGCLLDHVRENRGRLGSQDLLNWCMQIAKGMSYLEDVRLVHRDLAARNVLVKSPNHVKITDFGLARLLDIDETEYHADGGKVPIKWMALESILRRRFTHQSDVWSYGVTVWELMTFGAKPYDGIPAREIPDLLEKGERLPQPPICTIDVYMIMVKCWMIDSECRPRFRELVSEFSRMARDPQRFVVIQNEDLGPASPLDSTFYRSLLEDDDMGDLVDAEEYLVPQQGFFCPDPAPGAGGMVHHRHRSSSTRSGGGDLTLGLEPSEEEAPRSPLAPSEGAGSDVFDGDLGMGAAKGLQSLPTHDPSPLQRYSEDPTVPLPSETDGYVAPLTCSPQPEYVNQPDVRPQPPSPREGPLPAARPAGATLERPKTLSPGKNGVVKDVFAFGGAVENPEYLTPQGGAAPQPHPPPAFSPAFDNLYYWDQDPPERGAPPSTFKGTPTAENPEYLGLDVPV
Sequence of Cytochrome P450 3A4 (P08684 whole entry): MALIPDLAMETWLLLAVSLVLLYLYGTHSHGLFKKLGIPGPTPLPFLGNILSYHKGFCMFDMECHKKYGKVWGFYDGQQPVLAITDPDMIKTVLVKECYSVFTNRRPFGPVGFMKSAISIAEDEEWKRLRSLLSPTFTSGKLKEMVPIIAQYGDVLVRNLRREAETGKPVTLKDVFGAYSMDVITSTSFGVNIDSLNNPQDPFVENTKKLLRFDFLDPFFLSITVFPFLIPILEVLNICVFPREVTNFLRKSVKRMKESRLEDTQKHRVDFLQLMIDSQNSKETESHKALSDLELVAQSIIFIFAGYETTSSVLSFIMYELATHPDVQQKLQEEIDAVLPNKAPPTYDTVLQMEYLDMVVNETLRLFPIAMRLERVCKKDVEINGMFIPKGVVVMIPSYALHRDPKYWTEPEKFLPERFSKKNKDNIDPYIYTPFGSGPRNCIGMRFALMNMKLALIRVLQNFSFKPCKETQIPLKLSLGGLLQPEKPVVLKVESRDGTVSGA
Sequence of Cytochrome P450 2C9 (P11712 whole entry): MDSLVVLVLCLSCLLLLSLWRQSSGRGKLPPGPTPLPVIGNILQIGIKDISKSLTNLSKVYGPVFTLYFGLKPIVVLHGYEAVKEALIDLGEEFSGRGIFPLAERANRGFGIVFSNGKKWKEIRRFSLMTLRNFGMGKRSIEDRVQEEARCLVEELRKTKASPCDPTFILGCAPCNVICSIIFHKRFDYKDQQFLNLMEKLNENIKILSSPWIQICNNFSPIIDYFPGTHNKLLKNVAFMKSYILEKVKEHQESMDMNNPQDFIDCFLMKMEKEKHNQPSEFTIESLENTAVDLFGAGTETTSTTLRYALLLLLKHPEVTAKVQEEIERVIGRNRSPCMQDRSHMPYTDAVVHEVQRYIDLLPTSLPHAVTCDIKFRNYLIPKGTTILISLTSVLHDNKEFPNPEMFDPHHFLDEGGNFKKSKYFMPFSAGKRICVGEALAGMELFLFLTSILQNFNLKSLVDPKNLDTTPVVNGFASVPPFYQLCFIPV
Sequence of Epidermal growth factor receptor (P00533 whole entry): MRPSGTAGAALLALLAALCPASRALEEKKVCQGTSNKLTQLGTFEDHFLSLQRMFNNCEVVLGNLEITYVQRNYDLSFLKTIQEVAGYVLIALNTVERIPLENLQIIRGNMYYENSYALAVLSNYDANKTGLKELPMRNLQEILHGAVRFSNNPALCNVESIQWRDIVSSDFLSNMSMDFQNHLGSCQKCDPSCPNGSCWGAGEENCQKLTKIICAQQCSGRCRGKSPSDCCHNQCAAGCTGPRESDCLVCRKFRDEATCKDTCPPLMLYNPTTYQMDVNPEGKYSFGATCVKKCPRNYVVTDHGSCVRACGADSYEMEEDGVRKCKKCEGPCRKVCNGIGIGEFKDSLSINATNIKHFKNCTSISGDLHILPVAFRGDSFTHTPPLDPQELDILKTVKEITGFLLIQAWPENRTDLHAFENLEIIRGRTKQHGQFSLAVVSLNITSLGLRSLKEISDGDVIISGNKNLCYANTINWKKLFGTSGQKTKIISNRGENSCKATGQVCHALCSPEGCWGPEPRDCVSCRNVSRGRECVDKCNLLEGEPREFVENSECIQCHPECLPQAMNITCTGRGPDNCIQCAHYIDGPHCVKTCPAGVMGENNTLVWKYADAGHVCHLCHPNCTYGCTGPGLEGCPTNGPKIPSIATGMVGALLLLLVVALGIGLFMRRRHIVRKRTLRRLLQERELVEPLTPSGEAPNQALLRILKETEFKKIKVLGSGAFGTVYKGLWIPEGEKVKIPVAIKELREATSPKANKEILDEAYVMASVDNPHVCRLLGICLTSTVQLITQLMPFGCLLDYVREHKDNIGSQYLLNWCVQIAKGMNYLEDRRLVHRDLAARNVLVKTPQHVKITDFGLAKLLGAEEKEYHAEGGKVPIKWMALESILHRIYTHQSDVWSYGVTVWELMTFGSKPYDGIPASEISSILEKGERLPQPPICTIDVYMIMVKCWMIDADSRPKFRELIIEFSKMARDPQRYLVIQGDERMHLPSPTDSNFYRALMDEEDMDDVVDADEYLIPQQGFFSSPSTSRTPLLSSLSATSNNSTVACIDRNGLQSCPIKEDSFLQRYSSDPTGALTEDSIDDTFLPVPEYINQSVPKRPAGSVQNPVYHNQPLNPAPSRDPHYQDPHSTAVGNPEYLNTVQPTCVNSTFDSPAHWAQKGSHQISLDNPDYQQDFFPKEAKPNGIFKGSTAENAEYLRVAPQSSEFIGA

- IC50 [1]: 5010 nM
- IC50 [2]: 631 nM
SMILES: COc1cc2ncn(-c3cc(OCc4ccc(S(C)(=O)=O)cc4)c(C#N)s3)c2cc1OC

- IC50 [1]: 1580 nM
SMILES: COc1cc2ncn(-c3cc(OCCN4CCOCC4)c(C#N)s3)c2cc1OC

- IC50 [2]: 126 nM
SMILES: COc1cc2ncn(-c3cc(OCc4ccc(S(C)(=O)=O)cc4)c(C(N)=O)s3)c2cc1OC

- IC50 [1]: 2510 nM
SMILES: COc1cc2ncn(-c3cc(O)c(C#N)s3)c2cc1OC

- IC50 [2]: 251 nM
SMILES: COc1cc2ncn(-c3cc(OCC4CCCO4)c(C(N)=O)s3)c2cc1OC (configuration not stated)

- IC50 [1]: 25.1 nM
SMILES: COc1cc2c(cc1OCCCO)ncn2-c1cc(OCc2ccccc2C(F)(F)F)c(C#N)s1

- IC50 [1]: 3980 nM
SMILES: COc1cc2ncn(-c3cc(O[C@H](C)c4ccccc4C(F)(F)F)c(C#N)s3)c2cc1OC

- IC50 [1]: 1000 nM
SMILES: N#Cc1sc(-n2cnc3ccccc32)cc1OCc1ccccc1

- IC50 [1]: > 15800 nM
- IC50 [2]: 631 nM
SMILES: COc1cc2ncn(-c3cc(OCc4ccccc4)c(C(=O)O)s3)c2cc1OC

- IC50 [1]: 50.1 nM
SMILES: COc1cc2c(cc1OCCN1CCOCC1)ncn2-c1cc(OCc2ccccc2C(F)(F)F)c(C#N)s1

- IC50 [1]: 5010 nM
SMILES: COc1cc2ncn(-c3cc(OCCN4CCCCC4)c(C#N)s3)c2cc1OC

- IC50 [1]: 251 nM
SMILES: COc1cc2ncn(-c3cc(OCc4ccccc4C(F)(F)F)c(C#N)s3)c2cc1OC

- IC50 [1]: 12600 nM
SMILES: COc1cc2ncn(-c3cc(OCc4ccc(C(N)=O)cc4)c(C#N)s3)c2cc1OC

- IC50 [1]: 3160 nM
SMILES: COc1cc2ncn(-c3cc(OCC4CC4)c(C#N)s3)c2cc1OC

- IC50 [1]: 794 nM
SMILES: COc1cc2ncn(-c3cc(OCC4CCCO4)c(C#N)s3)c2cc1OC (configuration not stated)

- IC50 [1]: 20000 nM
SMILES: COc1cc2ncn(-c3cc(O[C@H](C)c4ccccc4Cl)c(C(N)=O)s3)c2cc1OC [GSK-237701A]

- IC50 [3]: > 10000 nM
- IC50 [4]: > 15800 nM
- IC50 [5]: > 10000 nM
- IC50 [1]: 39.8 nM
- IC50 [6]: > 50100 nM
- solubility [7]: 60 µM (≈ 28.2 µg/mL)
- IC50 [8]: > 50100 nM
- IC50 [2]: 794 nM
- Log IC50 [9]: > -4.8
- IC50 [10]: > 15800 nM
- IC50 [11]: > 50100 nM
- IC50 [12]: > 50100 nM
- IC50 [13]: > 15800 nM
- IC50 [14]: > 5010 nM
SMILES: COc1cc2ncn(-c3cc(OCc4ccccc4S(C)(=O)=O)c(C#N)s3)c2cc1OC [GSK-319347A]
